Laboratory results published in patent US8574563B2 (Bristol-Myers Squibb Company, priority 2006, dated 2013).

Tested on: HCV 1b-377-neo replicon cells
Experiment: HCV replicon assay, HCV 1b-377-neo replicon cells (1b FRET)
Format: cell-based, Hepatitis C virus genotype 1b
Details: Hepatitis C virus, HCV 1b-377-neo replicon cells; HCV 1b genotype; read-out: EC50 range against HCV 1b (Table 2, Range)
Summary of the method: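 FRET-based replicon assay in HCV 1b-377-neo cells, including a comparison line carrying the NS5A Y2065H mutation that confers resistance to a reference compound.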

Row | SMILES | EC50 [nM]
1 | COC(=O)N[C@H](C(=O)N1CCC[C@H]1c1ncc(-c2ccc(-c3ccc(-c4cnc([C@@H]5CCCN5C(=O)[C@H](NC(=O)OC)c5ccccc5)[nH]4)c(F)c3)cc2F)[nH]1)[C@H](C)OC [Example D65, methyl ((1S,2R)-1-(((2S)-2-(5-(3,3′-difluoro-4′-(2-((2S)-1-((2R)-2-((methoxyearbonyl)amino)-2-phenylacetyl)-2-pyrrolidinyl)-1H-imidazol-5-yl)-4-biphenylyl)-1H-imidazol-2-yl)-1-pyrrolidinyl)carbonyl)-2-methoxypropyl) carbamate bis(trifluoroacetate)] | 0.001 to 0.999
2 | COC(=O)N[C@H](C(=O)N1CCC[C@H]1c1nc(-c2ccc(-c3ccc(-c4cnc([C@@H]5CCCN5C(=O)[C@H](NC(=O)OC)c5ccccc5)[nH]4)c(F)c3)cc2F)c[nH]1)C1CC1 [Example D66, methyl ((1S)-1-cyclopropyl-2-((2S)-2-(5-(3,3′-difluoro-4′-(2-((2S)-1-((2R)-2-((methoxycarbonyl)amino)-2-phenylacetyl)-2-pyrrolidinyl)-1H-imidazol-5-yl)-4-biphenylyl)-1H-imidazol-2-yl)-1-pyrrolidinyl)-2-oxoethyl)carbamate] | 0.001 to 0.999
3 | COC(=O)N[C@@H](C)C(=O)N1CCC[C@H]1c1nc(-c2cnc(-c3ccc(-c4cnc([C@@H]5CCCN5C(=O)[C@H](C)NC(=O)OC)[nH]4)c(F)c3)nc2)c[nH]1 [Example D67, methyl ((1S)-2-((2S)-2-(5-(2-fluoro-4-(5-(2-((2S)-1-(N-(methoxycarbonyl)-L-alanyl)-2-pyrrolidinyl)-1H-imidazol-5-yl)-2-pyrimidinyl)phenyl)-1H-imidazol-2-yl)-1-pyrrolidinyl)-1-methyl-2-oxoethyl)carbamate] | 0.001 to 0.999
4 | COC(=O)N[C@H](C(=O)N1CCC[C@H]1c1nc(-c2cnc(-c3ccc(-c4cnc([C@@H]5CCCN5C(=O)[C@@H](NC(=O)OC)C(C)C)[nH]4)c(F)c3)nc2)c[nH]1)C(C)C [Example D68, methyl ((1S)-1-(((2S)-2-(5-(2-fluoro-4-(5-(2-((2S)-1-((2S)-((methoxycarbonyl)amino)-3-methylbutanoyl)-2-pyrrolidinyl)-1H-imidazol-5-yl)-2-pyrimidinyl)phenyl)-1H-imidazol-2-yl)-1-pyrrolidinyl)carbonyl)-2-methylpropyl) carbamate] | 0.001 to 0.999
5 | COC(=O)N[C@@H](C(=O)N1CCC[C@H]1c1nc(-c2cnc(-c3ccc(-c4cnc([C@@H]5CCCN5C(=O)[C@H](NC(=O)OC)c5ccccc5)[nH]4)c(F)c3)nc2)c[nH]1)c1ccccc1 [Example D69, methyl ((1R)-2-((2S)-2-(5-(2-(3-fluoro-4-(2-((2S)-1-((2R)-2-((methoxycarbonyl)amino)-2-phenylacetyl)-2-pyrrolidinyl)-1H-imidazol-5-yl)phenyl)-5-pyrimidinyl)-1H-imidazol-2-yl)-1-pyrrolidinyl)-2-oxo-1-phenylethyl)carbamate] | 0.001 to 0.999
6 | COC(=O)N[C@H](C(=O)N1CCC[C@H]1c1nc(-c2cnc(-c3ccc(-c4cnc([C@@H]5CCCN5C(=O)[C@@H](NC(=O)OC)[C@@H](C)OC)[nH]4)c(F)c3)nc2)c[nH]1)[C@@H](C)OC [Example D70, methyl ((1S,2R)-1-(((2S)-2-(5-(2-fluoro-4-(5-(2-((2S)-1-(N-(methoxycarbonyl)-O-methyl-L-threonyl)-2-pyrrolidinyl)-1H-imidazol-5-yl)-2-pyrimidinyl)phenyl)-1H-imidazol-2-yl)-1-pyrrolidinyl)carbonyl)-2-methoxypropyl) carbamate] | 0.001 to 0.999
7 | COC(=O)N[C@@H](C)C(=O)N1CCC[C@H]1c1nc(-c2cnc(-c3ccc(-c4cnc([C@@H]5CCCN5C(=O)[C@H](C)NC(=O)OC)[nH]4)cc3)nc2)c[nH]1 [Example D73, methyl ((1S)-2-((2S)-2-(5-(4-(5-(2-((2S)-1-(N-(methoxycarbonyl)-L-alanyl)-2-pyrrolidinyl)-1H-imidazol-5-yl)-2-pyrimidinyl)phenyl)-1H-imidazol-2-yl)-1-pyrrolidinyl)-1-methyl-2-oxoethyl)carbamate] | 0.001 to 0.999
8 | COC(=O)N[C@H](C(=O)N1CCC[C@H]1c1nc(-c2cnc(-c3ccc(-c4cnc([C@@H]5CCCN5C(=O)[C@@H](NC(=O)OC)C(C)C)[nH]4)cc3)nc2)c[nH]1)C(C)C [Example D74, methyl ((1S)-1-(((2S)-2-(5-(2-(4-(2-((2S)-1-((2S)-2-((methoxycarbonyl)amino)-3-methylbutanoyl)-2-pyrrolidinyl)-1H-imidazol-5-yl)phenyl)-5-pyrimidinyl)-1H-imidazol-2-yl)-1-pyrrolidinyl)carbonyl)-2-methylpropyl)carbamate] | 0.001 to 0.999
9 | COC(=O)N[C@H](C(=O)N1CCC[C@H]1c1nc(-c2cnc(-c3ccc(-c4cnc([C@@H]5CCCN5C(=O)[C@@H](NC(=O)OC)C5CC5)[nH]4)cc3)nc2)c[nH]1)C1CC1 [Example D75, methyl ((1S)-1-cyclopropyl-2-((2S)-2-(5-(2-(4-(2-((2S)-1-((2S)-2-cyclopropyl-2-((methoxycarbonyl)amino)acetyl)-2-pyrrolidinyl)-1H-imidazol-5-yl)phenyl)-5-pyrimidinyl)-1H-imidazol-2-yl)-1-pyrrolidinyl)-2-oxoethyl)carbamate] | 0.001 to 0.999
10 | CCN(CC)[C@@H](C(=O)N1CCC[C@H]1c1ncc(-c2ccc(-c3ncc(-c4c[nH]c([C@@H]5CCCN5C(=O)[C@@H](NC(=O)OC)C(C)C)n4)cn3)cc2)[nH]1)c1ccccc1 [Example D76] | 0.001 to 0.999
11 | CCN(CC)[C@@H](C(=O)N1CCC[C@H]1c1ncc(-c2ccc(-c3ncc(-c4c[nH]c([C@@H]5CCCN5C(=O)[C@H](C)NC(=O)OC)n4)cn3)cc2)[nH]1)c1ccccc1 [Example D77, methyl ((1S)-2-((2S)-2-(5-(2-(4-(2-((2S)-1-((2R)-2-(diethylamino)-2-phenylacetyl)-2-pyrrolidinyl)-1H-imidazol-5-yl)phenyl)-5-pyrimidinyl)-1H-imidazol-2-yl)-1-pyrrolidinyl)-1-methyl-2-oxoethyl)carbamate] | 0.001 to 0.999
12 | Cc1[nH]c([C@@H]2CCCN2C(=O)[C@@H](c2ccccc2)N(C)C)nc1-c1ccc(-c2ccc(-c3cnc([C@@H]4CCCN4C(=O)[C@@H](c4ccccc4)N(C)C)[nH]3)cc2)cc1 [Example E5, (1R)-2-((2S)-2-(4-(4′-(2-((2S)-1-((2R)-2-(dimethylamino)-2-phenylacetyl)-2-pyrrolidinyl)-1H-imidazol-4-yl)-4-biphenylyl)-5-methyl-1H-imidazol-2-yl)-1-pyrrolidinyl)-N,N-dimethyl-2-oxo-1-phenylethanamine] | 0.001 to 0.999
13 | CCN(CC)[C@@H](C(=O)N1CCC[C@H]1c1ncc(-c2ccc(-c3ccc(-c4nc([C@@H]5CCCN5C(=O)[C@@H](c5ccccc5)N(CC)CC)[nH]c4C)cc3)cc2)[nH]1)c1ccccc1 [Example E5a, (1R)-2-((2S)-2-(4-(4′-(2-((2S)-1-((2R)-2-(diethylamino)-2-phenylacetyl)-2-pyrrolidinyl)-1H-imidazol-4-yl)-4-biphenylyl)-5-methyl-1H-imidazol-2-yl)-1-pyrrolidinyl)-N,N-diethyl-2-oxo-1-phenylethanamine] | 0.001 to 0.999
14 | Cc1[nH]c([C@@H]2CCCN2C(=O)[C@@H](c2ccccc2)N2CCCCC2)nc1-c1ccc(-c2ccc(-c3cnc([C@@H]4CCCN4C(=O)[C@@H](c4ccccc4)N4CCCCC4)[nH]3)cc2)cc1 [Example E5b, 1-((1R)-2-((2S)-2-(4-(4′-(4-methyl-2-((2S)-1-((2R)-2-phenyl-2-(1-piperidinyl)acetyl)-2-pyrrolidinyl)-1H-imidazol-5-yl)-4-biphenylyl)-1H-imidazol-2-yl)-1-pyrrolidinyl)-2-oxo-1-phenylethyl)piperidine] | 0.001 to 0.999
15 | COC(=O)N[C@@H](C(=O)N1CCC[C@H]1c1ncc(-c2ccc(-c3ccc(-c4nc([C@@H]5CCCN5C(=O)[C@H](NC(=O)OC)c5ccccc5)[nH]c4C)cc3)cc2)[nH]1)c1ccccc1 [Example E5c, methyl ((1R)-2-((2S)-2-(4-(4′-(2-((2S)-1-((2R)-2-((methoxycarbonyl)amino)-2-phenylacetyl)-2-pyrrolidinyl)-1H-imidazol-4-yl)-4-biphenylyl)-5-methyl-1H-imidazol-2-yl)-1-pyrrolidinyl)-2-oxo-1-phenylethyl)carbamate] | 0.001 to 0.999
16 | COC(=O)N[C@@H](C)C(=O)N1CCC[C@H]1c1ncc(-c2ccc(-c3ccc(-c4nc([C@@H]5CCCN5C(=O)[C@H](C)NC(=O)OC)[nH]c4C)cc3)cc2)[nH]1 [Example E5d, methyl ((1S)-2-((2S)-2-(4-(4′-(2-((2S)-1-(N-(methoxycarbonyl)-L-alanyl)-2-pyrrolidinyl)-4-methyl-1H-imidazol-5-yl)-4-biphenylyl)-1H-imidazol-2-yl)-1-pyrrolidinyl)-1-methyl-2-oxoethyl)carbamate] | 0.001 to 0.999
17 | COC(=O)N[C@H](C(=O)N1CCC[C@H]1c1ncc(-c2ccc(-c3ccc(-c4nc([C@@H]5CCCN5C(=O)[C@@H](NC(=O)OC)C(C)C)[nH]c4C)cc3)cc2)[nH]1)C(C)C [Example E5e, methyl ((1S)-1-(((2S)-2-(4-(4′-(2-((2S)-1-((2S)-2-((methoxycarbonyl)amino)-3-methylbutanoyl)-2-pyrrolidinyl)-1H-imidazol-4-yl)-4-biphenylyl)-5-methyl-1H-imidazol-2-yl)-1-pyrrolidinyl)carbonyl)-2-methylpropyl)carbamate] | 0.001 to 0.999
18 | Cc1nc([C@@H]2CCCN2C(=O)[C@@H](c2ccccc2)N(C)C)[nH]c1-c1ccc(-c2ccc(-c3nc([C@@H]4CCCN4C(=O)[C@@H](c4ccccc4)N(C)C)[nH]c3C)cc2)cc1 [Example E5g, (1R,1′R)-2,2′-(4,4′-biphenyldiylbis((4-methyl-1H-imidazole-5,2-diyl)(2S)-2,1-pyrrolidinediyl))bis(N,N-dimethyl-2-oxo-1-phenylethanamine)] | 0.001 to 0.999
19 | CCN(CC)[C@@H](C(=O)N1CCC[C@H]1c1nc(-c2ccc(-c3ccc(-c4[nH]c([C@@H]5CCCN5C(=O)[C@@H](c5ccccc5)N(CC)CC)nc4C)cc3)cc2)c(C)[nH]1)c1ccccc1 [Example E5h, (1R,1′R)-2,2′-(4,4′-biphenyldiylbis((4-methyl-1H-imidazole-5,2-diyl)(2S)-2,1-pyrrolidinediyl))bis(N,N-diethyl-2-oxo-1-phenylethanamine)] | 0.001 to 0.999
